As a reminder, the MIC is the smallest concentration in the dilution series that meets the test's criterion for growth inhibition.

Consider four compounds from patent US20160326165A1, “ALKOXYCARBONYL HEMIACETAL-TYPE ESTER PRODRUG OF PYRIDONE CARBOXYLIC ACID ANTIBACTERIAL DRUG” (KINKI UNIVERSITY, priority 2013, published 2016).

The test system of series [1] is Pseudomonas-aeruginosa ATCC 27853. The series is described as follows: MIC (minimum inhibitory concentration) against Pseudomonas-aeruginosa ATCC 27853. In kind it is cell-based. The source says: (§1) The MIC activity unit in the table is μg/mL.
The test system of series [2] is Escherichia coli ATCC 25922. The series can be described thus: MIC against Escherichia coli ATCC 25922. The format is cell-based. Conditions: ATCC25922.
Description: as §1

The test system of series [3] is Escherichia coli NIH JC2. The series can be described thus: MIC against Escherichia coli NIH JC2. In kind it is cell-based. Particulars: NIHJC2.
Description: as §1

In series [4] the test system is Enterobacter ATCC 23355. The series is described as follows: MIC against Enterobacter ATCC 23355. In kind it is cell-based. Particulars: ATCC23355.
Description: as §1

Series [5] is described as follows: Rat intestinal everted sac method: intestinal absorption and hydrolysis to LVFX, alone or with AlCl3. The format is in vitro ADME. Particulars: for LVFX concentration generated within the small intestine lumen from the ester alone versus LVFX alone / influence of simultaneous administration of AlCl3 on LVFX generated: incubation 60 minutes; for hydrolysis into LVFX: incubation for 60 minutes, small intestine; for drug substance LVFX as a hydrolysis product in the everted intestinal tract: ester. On the procedure:
1. Glucose 200 mg was dissolved in 100 ml of 20 mM HEPES buffer isotonic sodium chloride solution, and pH is regulated at 7.4 with 5N- or 1N-sodium hydroxide by measuring pH (If pH rises, pH is modulated with 1N-hydrochloric acid.).
1. Similarly in the case of independent administration, glucose 200 mg is dissolved in 100 ml of 20 mM HEPES buffer isotonic sodium chloride solution, and pH is regulated at 7.4 with 5N- or 1N-sodium hydroxide by measuring pH (If pH rises, pH is modulated with 1N-hydrochloric acid.).
2. AlCl3 8.0 mg is dissolved (600 μM).
1. A SD type male rat of 8-week old after the birth is purchased and undergoes quarantine habituation for two days. After fasting for 24 hours, a pentobarbital sodium (50 mg/ml) is injected intraperitoneally in the amount (ml) of: rat weight (g)×0.05/50 (that is, weight (g)×0.001).
2. After the rat sleeps completely, it is incised in the abdomen so as to be observed from the stomach till the bladder, and the intestinal tract is removed from the end of the duodenum to the front 5 cm of the cecum.
3. The intestinal tract is cut off every 10 cm carefully, and all portions are washed with physiological saline (both circumference and inside of intestinal).
4. The intestinal tract is made reversed from the stomach side using a stainless steel tube.
5. The cecum side of the reversed intestinal tract is tied with sutures to make bag-shaped.
6. One (1) ml of the HEPES buffer isotonic sodium chloride solution adjusted is put in from the stomach side of the intestinal tract, and the intestinal tract is tied with a suture.
7. The tied intestinal tract is put in the HEPES buffer isotonic sodium chloride solution cooled upon ice, and is preserved.
2. One (1) ml of the drug solution is taken, and it is diluted with 9 ml of the HEPES buffer isotonic sodium chloride solution 10 times (2 mM).
3. A portion (5 ml) of the solution is further diluted with 95 ml of the HEPES buffer isotonic sodium chloride solution to 20 times (100 μM).
1. Thirty (30) ml of the diluted drug solution is taken to a 50-ml Erlenmeyer flask, and the intestinal tract containing a HEPES buffer isotonic sodium chloride solution is put in.
2. […]
3. The intestinal tract is taken out from the drug solution, and, after flushing and wiping off the drug solution attached to the surroundings of the intestinal tract with the physiological saline, all liquid in the intestinal tract is taken out into the Eppendorf tube.
4. The liquid is centrifuged for 5 minutes at 12,000 rpm.
5. 250 μL of a supernatant liquid is taken as a sample.
The method is the same as the HPLC measurement conditions mentioned above in-vivo experiment.

Series [6] deals with Pseudomonas-aeruginosa (ATCC27853), Escherichia coli (ATCC25922 and NIH JC2), and Enterobacter (ZTCC23355). The series is described as follows: Comparison of antibacterial activities of LVFX and LVFX-EHE over all tested strains. The format is cell-based. Conditions: all four strains of Table 11.
Series [7] in a line: Blood concentration and AUC of LVFX after oral administration to rats, alone or with a metal-containing preparation. Particulars: for blood concentration of LVFX after independent administration of the ester versus independent administration of LVFX / blood concentration of LVFX under concomitant use of polyvalent metal-containing antacid: 0-240 minutes.
Description: A cannulation inner tube (Fuji Systems Corporation Ltd., Tokyo) having an internal diameter of 0.5 mm and an outside diameter of 1.0 mm which is used for blood collecting was inserted in the jugular vein of rats on the preceding day before the administration experiment, and the rats were made to abstain from food for 20 hours in an environment where only water can be taken in the animal room.
The polyvalent metal-containing preparation Al(OH)3 was administered in a dose of 30 mg/kg subject.
After administration of the drug, a blood sample was collected through a jugular vein cannulation inner tube in an amount of 200 μL each along the time elapsed (after 0, 15, 30, 45, 60, 90, 120, 180, and 240 minutes) in a 1-mL syringe treated with heparin, the blood was centrifuged for 5 minutes at 12,000 rpm and 4 deg C immediately, and 50 μL of a supernatant was taken to make plasma.
The following procedures were carried out successively: addition of 100 μL of methanol solution containing 10 μmol/L of CPFX as an internal standard substance to 50 μL of plasma, then stirring; centrifuging for 5 minutes at 6,200 rpm; sampling 100 μL of the supernatant with a syringe; filtering the sample solution using Millex (registered trademark)-HV (0.45 micrometer, MILLIPORE, Billerica, Mass., USA). […] The HPLC measurement conditions were as follows; the column used: TSK-GEL ODS-80 Ts (250×4.6 mm, TOSOH Corp., Tokyo), the mobile phase used: 20-mm sodium-phosphate buffer solution (pH 3.0)/acetonitrile=79:21 (v/v). The measurement was carried out using Shimazu SPD-20A Spectrometer detector (Shimadzu, Kyoto) with 280 nm detection wavelength, and flow rate was 1.0 mL/min. The retention times obtained by these conditions were 6.9 minutes for ENX, and 7.2 minutes for CPFX.
The differences of AUCs between 4 groups were computed by performing the multiple comparison by Dunnett's method, and the range of p<0.05 was understood as having a statistical significance.

In brackets after ≈: the same amount, converted by molar mass.

Consider `C[C@H]1COc2c(N3CCN(C)CC3)c(F)cc3c(=O)c(C(=O)O)cn1c23` [LVFX, (3S)-9-fluoro-3-methyl-10-(4-methyl-1-piperazinyl)-7-oxo-2,3-dihydro-7H-pyrid [1,2,3-de] [1,4] benzoxazine-6-carboxylic acid, reference compound], for which the MIC is 0.5 µg/mL (≈ 1.38 µM) in series [1], no more than 0.065 µg/mL in series [2], no more than 0.065 µg/mL in series [3] and no more than 0.065 µg/mL in series [4]. The “absorption amount with AlCl3 as percent of LVFX administration alone” value in series [5] (LVFX and AlCl3 concomitantly) is given as “about 54%”.

In series [1], `CCOC(=O)OC(C)OC(=O)c1cn2c3c(c(N4CCN(C)CC4)c(F)cc3c1=O)OC[C@@H]2C` (stereo partly drawn) [LVFX-EHE, Levofloxacin ethoxycarbonyl-1-ethyl hemiacetal-type ester] displayed an MIC of 8 µg/mL (≈ 16.8 µM). The compound further showed an MIC in series [2] of 0.5 µg/mL (≈ 1.05 µM). Inhibition of growth in series [3] (MIC) required 0.5 µg/mL (≈ 1.05 µM). In series [4], this compound came in with an MIC of 2 µg/mL (≈ 4.19 µM). In addition, in series [5], the “LVFX concentration generated within the small intestine lumen from the ester alone versus LVFX alone” value was “no significant difference”, the “influence of simultaneous administration of AlCl3 on LVFX generated” value is listed as “no influence” and the “hydrolysis into LVFX” value is given as “completely hydrolyzed”. The “MIC values considered from clinical break points” value in series [6] was “non-sensitive to any bacterial strains”. Further, in series [6] (ratio to LVFX), the “antibacterial activity as compared to that of LVFX” value is recorded as 1/10. Further, in series [7], the “AUC of LVFX in blood on co-administration with the metal-containing preparation versus LVFX independent administration” value is “no significant difference”, the “blood concentration of LVFX after independent administration of the ester versus independent administration of LVFX” value is reported as “Significant differences were not observed” and the “blood concentration of LVFX under concomitant use of polyvalent metal-containing antacid” value was “not influenced”.

As to `COC(=O)c1cn2c3c(c(N4CCN(C)CC4)c(F)cc3c1=O)OC[C@@H]2C` [LVFX-M, (S)-Methyl-9-fluoro-3-methyl-10-(4-methylpiperazine-1-yl)-7-oxo-3,7-dihydro-2H-[1,4] oxazolino [2,3,4-ij] quinolin-6-carboxylate, reference compound], the “drug substance LVFX as a hydrolysis product in the everted intestinal tract” value in series [5] (concomitant administration with aluminum chloride) and in series [5] (independent administration alone) was “not detected” in each case. For the same compound, the “peak of LVFX in blood derived from the ester” value in series [7] (ester administered alone) and in series [7] (ester co-administered with Al(OH)3 30 mg/kg) was “no peak was detected” each time.

With `CC(C)OC(=O)OC(C)OC(=O)c1cn2c3c(c(N4CCN(C)CC4)c(F)cc3c1=O)OC[C@@H]2C` (mixture of isomers) [LVFX-iPrHE, Levofloxacin isopropoxycarbonyl 1-ethyl hemiacetal-type ester], in series [5], the “LVFX concentration generated within the small intestine lumen from the ester alone versus LVFX alone” value is on record as “no significant difference”, the “influence of simultaneous administration of AlCl3 on LVFX generated” value is “no influence” and the “hydrolysis into LVFX” value is “completely hydrolyzed”. In series [7], the “AUC of LVFX in blood on co-administration with the metal-containing preparation versus LVFX independent administration” value is on record as “no significant difference”, the “blood concentration of LVFX after independent administration of the ester versus independent administration of LVFX” value is recorded as “A significant difference was not found” and the “blood concentration of LVFX under concomitant use of polyvalent metal-containing antacid” value is listed as “not influenced”.
